In brackets after ≈: the same amount, converted by molar mass.
Tests used:
[1] = Dissolving the compound with solubilizer in heated, vacuum-stirred water for injection under nitrogen or argon gas (preparation tank); type: physicochemical; conditions: kept at 80 °C, nitrogen gas
Procedure: In view of this, the present invention provides a method for dissolving a carbon glycoside compound or a stilbene compound, characterized in that the method comprises the following steps: • heating water for injection to 80-98 °C, followed by stirring under vacuum condition at 30-80 °C, and then adding the carbon glycoside compound or the stilbene compound along with a solubilizer under the protection of nitrogen gas or argon gas to obtain a solution of said compounds; • wherein the solubilizer is one or a mixture of two or more of gastrodin, water-soluble cyclodextrin and ethanol, and wherein the water-soluble cyclodextrin is one or a mixture of two or more of methyl-β-cyclodextrin, thioether-β-cyclodextrin and sulfobutyl ether-β-cyclodextrin; and • wherein the mass ratio of the carbon glycoside compound or the stilbene compound to the solubilizer is 1:1-20.
Disclosed is a method for dissolving a flavonoid compound, a carbon glycoside compound or a stilbene compound, including: • mixing the flavonoid compound, the carbon glycoside compound or the stilbene compound with a solubilizer to obtain a reactant; and • heating water for injection to 80-98 °C, followed by stirring under vacuum conditions at 30-80 °C, and then adding the reactant under the protection of nitrogen gas or argon gas to obtain a solution of the reactant.
Considering the sensitivity to heat or light of the flavonoid compound, the carbon glycoside compound or the stilbene compound, a method is provided by heating water for injection to 80-98 °C to remove dissolved oxygen and other gases in water, which reduces the surface tension of water, increases the contact area of water with the flavonoid compound, the carbon glycoside compound or the stilbene compound, thus increasing the dissolution speed. Meanwhile, pre-heating the water for injection can effectively avoid degradation of the flavonoid compound, the carbon glycoside compound or the stilbene compound due to exposure to the dissolved oxygen, to eliminate unstable factors of the flavonoid compound, the carbon glycoside compound or the stilbene compound. The vacuum conditions can achieve further deoxygenation, facilitating the dissolution of the flavonoid compound, the carbon glycoside compound or the stilbene compound in water. Nitrogen gas or argon gas provides an inert atmosphere, which further reduces the surface tension of the materials, increases the contact area of the flavonoid compound, the carbon glycoside compound or the stilbene compound with water, and increases the dissolution speed.

[2] = Solubility of triptophenolide in aqueous solutions with different concentrations of gastrodin and/or water-soluble cyclodextrin; type: physicochemical; conditions: aqueous solution of solubilizer
Description: Table 1. Solubility of triptophenolide in aqueous solutions with different concentrations of gastrodin and/or water-soluble cyclodextrin

For `OC[C@H]1O[C@@H](Oc2cc(/C=C/c3cc(O)cc(O)c3)ccc2O)[C@H](O)[C@@H](O)[C@@H]1O`, which “dissolved in (time)” value ([1]; Example 35: 5 g with Gastrodin 80 g in 1000 ml, water heated to 95 °C, vacuum stirring 10 minutes) is on record?
The value was “about 5 minutes”.

What about the “dissolved in (time)” value ([1]; Example 36: 20 g with Gastrodin 200 g in 1000 ml, water heated to 95 °C, vacuum stirring 10 minutes) of the same compound?
The value was “about 5 minutes”.

And the “dissolved in (time)” value ([1]; Example 37: 10 g with Gastrodin 80 g in 1000 ml, water heated to 95 °C, vacuum stirring 10 minutes)?
The value was “about 5 minutes”.

What about the “dissolved in (time)” value ([1]; Example 38: 25 g with Gastrodin 80 g, Hydroxypropyl-β-cyclodextrin 30 g in 1000 ml, water heated to 95 °C, vacuum stirring 10 minutes) of the same compound?
Its value is “about 5 minutes”.

What about the “dissolved in (time)” value ([1]; Example 47: 5 g with Methyl-β-cyclodextrin 30 g in 1000 ml, water heated to 88 °C, vacuum stirring 40 minutes) of the same compound?
Its value is “about 5 minutes”.

And the “dissolved in (time)” value ([1]; Example 51: 10 g with Methyl-β-cyclodextrin 30 g in 1000 ml, water heated to 95 °C, vacuum stirring 10 minutes)?
Its value is “about 5 minutes”.

And the “dissolved in (time)” value ([1]; Example 52: 10 g with Thioether-β-cyclodextrin 30 g in 1000 ml, water heated to 95 °C, vacuum stirring 10 minutes)?
The value was “about 5 minutes”.

What about the “dissolved in (time)” value ([1]; Example 55: 10 g with Methyl-β-cyclodextrin 50 g in 1000 ml, water heated to 95 °C, vacuum stirring 10 minutes) of the same compound?
Its value is “about 5 minutes”.

And the “dissolved in (time)” value ([1]; Example 58: 20 g with Hydroxypropyl-β-cyclodextrin 50 g in 1000 ml, water heated to 95 °C, vacuum stirring 10 minutes)?
The value was “about 5 minutes”.

What about the “dissolved in (time)” value ([1]; Example 59: 20 g with Methyl-β-cyclodextrin 50 g in 1000 ml, water heated to 95 °C, vacuum stirring 10 minutes) of the same compound?
Its value is “about 5 minutes”.

And the “dissolved in (time)” value ([1]; Example 61: 20 g with Sulfobutyl ether-β-cyclodextrin 50 g in 1000 ml, water heated to 95 °C, vacuum stirring 10 minutes)?
The value was “about 5 minutes”.

What about the “dissolved in (time)” value ([1]; Example 63: 5 g with Gastrodin 100 g in 1000 ml, water heated to 95 °C, vacuum stirring 10 minutes) of the same compound?
The value was “about 5 minutes”.

And the “dissolved in (time)” value ([1]; Example 65: 5 g with Gastrodin 100 g in 1000 ml, water heated to 95 °C, vacuum stirring 10 minutes)?
The value was “about 5 minutes”.

What about the “dissolved in (time)” value ([1]; Example 68: 50 g with Hydroxypropyl-β-cyclodextrin 80 g in 1000 ml, water heated to 95 °C, vacuum stirring 10 minutes) of the same compound?
The value was “about 5 minutes”.

What about the “dissolved in (time)” value ([1]; Example 69: 50 g with Methyl-β-cyclodextrin 80 g in 1000 ml, water heated to 95 °C, vacuum stirring 10 minutes) of the same compound?
Its value is “about 5 minutes”.

What about the “dissolved in (time)” value ([1]; Example 70: 50 g with Thioether-β-cyclodextrin 80 g in 1000 ml, water heated to 95 °C, vacuum stirring 10 minutes) of the same compound?
The value was “about 5 minutes”.

What about the “dissolved in (time)” value ([1]; Example 71: 50 g with Sulfobutyl ether-β-cyclodextrin 80 g (formula; text: hydroxypropyl-β-cyclodextrin) in 1000 ml, water heated to 95 °C, vacuum stirring 10 minutes) of the same compound?
The value was “about 5 minutes”.

What about the “dissolved in (time)” value ([1]; Example 72: 50 g with Hydroxypropyl-β-cyclodextrin 80 g in 1000 ml, water heated to 95 °C, vacuum stirring 10 minutes) of the same compound?
The value was “about 5 minutes”.

What about the “dissolved in (time)” value ([1]; Example 73: 50 g with Hydroxypropyl-β-cyclodextrin 80 g in 1000 ml, water heated to 95 °C, vacuum stirring 10 minutes) of the same compound?
The value was “about 5 minutes”.

What about the “dissolved in (time)” value ([1]; Example 74: 5 g with Gastrodin 0.5 g in 1000 ml, water heated to 95 °C, vacuum stirring 10 minutes) of the same compound?
The value was “about 5 minutes”.

What about the “dissolved in (time)” value ([1]; Example 80: 10 g with Hydroxypropyl-β-cyclodextrin 30 g in 1000 ml, water heated to 95 °C, vacuum stirring 10 minutes) of the same compound?
Its value is “about 5 minutes”.

And the solubility ([2]; aqueous with cosolvent or surfactant or cyclodextrin, Gastrodin concentration 1 %)?
Its solubility is 3.19 mg/mL (≈ 7.85 mM).

And the solubility ([2]; aqueous with cosolvent or surfactant or cyclodextrin, Gastrodin concentration 3 %)?
Its solubility is 5.1 mg/mL (≈ 12.5 mM).

What about the solubility ([2]; aqueous with cosolvent or surfactant or cyclodextrin, Gastrodin concentration 5 %) of the same compound?
The solubility was 7.11 mg/mL (≈ 17.5 mM).

What about the solubility ([2]; aqueous with cosolvent or surfactant or cyclodextrin, Gastrodin concentration 8 %) of the same compound?
Its solubility is 9.17 mg/mL (≈ 22.6 mM).

What about the solubility ([2]; aqueous with cosolvent or surfactant or cyclodextrin, Gastrodin concentration 10 %) of the same compound?
The solubility was 11.4 mg/mL (≈ 28.1 mM).

And the solubility ([2]; aqueous with cosolvent or surfactant or cyclodextrin, Gastrodin concentration 15 %)?
The solubility was 11.8 mg/mL (≈ 28.9 mM).

And the solubility ([2]; aqueous with cosolvent or surfactant or cyclodextrin, Gastrodin concentration 25 %)?
Its solubility is 38.4 mg/mL (≈ 94.4 mM).

And the solubility ([2]; aqueous with cosolvent or surfactant or cyclodextrin, Gastrodin concentration 30 %)?
Its solubility is 60.4 mg/mL (≈ 149 mM).

And the solubility ([2]; aqueous with cosolvent or surfactant or cyclodextrin, Gastrodin concentration 35 %)?
The solubility was 87.8 mg/mL (≈ 216 mM).

What about the solubility ([2]; aqueous with cosolvent or surfactant or cyclodextrin, Gastrodin concentration 40 %) of the same compound?
The solubility was 85.1 mg/mL (≈ 209 mM).

And the solubility ([2]; aqueous with cosolvent or surfactant or cyclodextrin, Gastrodin concentration 45 %)?
Its solubility is 98 mg/mL (≈ 241 mM).

What about the solubility ([2]; aqueous with cosolvent or surfactant or cyclodextrin, Gastrodin concentration 50 %) of the same compound?
The solubility was 105 mg/mL (≈ 258 mM).

And the solubility ([2]; aqueous with cosolvent or surfactant or cyclodextrin, Hydroxypropyl-β-cyclodextrin concentration 1 %)?
The solubility was 4.8 mg/mL (≈ 11.8 mM).

And the solubility ([2]; aqueous with cosolvent or surfactant or cyclodextrin, Hydroxypropyl-β-cyclodextrin concentration 3 %)?
Its solubility is 10.8 mg/mL (≈ 26.5 mM).

What about the solubility ([2]; aqueous with cosolvent or surfactant or cyclodextrin, Hydroxypropyl-β-cyclodextrin concentration 5 %) of the same compound?
The solubility was 20 mg/mL (≈ 49.3 mM).

What about the solubility ([2]; aqueous with cosolvent or surfactant or cyclodextrin, Hydroxypropyl-β-cyclodextrin concentration 8 %) of the same compound?
The solubility was 26.1 mg/mL (≈ 64.3 mM).

What about the solubility ([2]; aqueous with cosolvent or surfactant or cyclodextrin, Hydroxypropyl-β-cyclodextrin concentration 10 %) of the same compound?
The solubility was 34.1 mg/mL (≈ 83.9 mM).

And the solubility ([2]; aqueous with cosolvent or surfactant or cyclodextrin, Hydroxypropyl-β-cyclodextrin concentration 15 %)?
The solubility was 43.3 mg/mL (≈ 106 mM).

And the solubility ([2]; aqueous with cosolvent or surfactant or cyclodextrin, Hydroxypropyl-β-cyclodextrin concentration 20 %)?
Its solubility is 59.2 mg/mL (≈ 146 mM).

What about the solubility ([2]; aqueous with cosolvent or surfactant or cyclodextrin, Hydroxypropyl-β-cyclodextrin concentration 25 %) of the same compound?
The solubility was 64.3 mg/mL (≈ 158 mM).

What about the solubility ([2]; aqueous with cosolvent or surfactant or cyclodextrin, Hydroxypropyl-β-cyclodextrin concentration 30 %) of the same compound?
Its solubility is 116 mg/mL (≈ 286 mM).

What about the solubility ([2]; aqueous with cosolvent or surfactant or cyclodextrin, Hydroxypropyl-β-cyclodextrin concentration 35 %) of the same compound?
Its solubility is 159 mg/mL (≈ 392 mM).

And the solubility ([2]; aqueous with cosolvent or surfactant or cyclodextrin, Hydroxypropyl-β-cyclodextrin concentration 40 %)?
Its solubility is 189 mg/mL (≈ 464 mM).

And the solubility ([2]; aqueous with cosolvent or surfactant or cyclodextrin, Hydroxypropyl-β-cyclodextrin concentration 45 %)?
The solubility was 181 mg/mL (≈ 444 mM).

What about the solubility ([2]; aqueous with cosolvent or surfactant or cyclodextrin, Hydroxypropyl-β-cyclodextrin concentration 50 %) of the same compound?
Its solubility is 183 mg/mL (≈ 451 mM).

And the solubility ([2]; aqueous with cosolvent or surfactant or cyclodextrin, Solubilizer concentration: Gastrodin 0 %, Hydroxypropyl-β-cyclodextrin 3 %)?
Its solubility is 10.8 mg/mL (≈ 26.5 mM).

What about the solubility ([2]; aqueous with cosolvent or surfactant or cyclodextrin, Solubilizer concentration: Gastrodin 1 %, Hydroxypropyl-β-cyclodextrin 3 %) of the same compound?
The solubility was 14.8 mg/mL (≈ 36.4 mM).

And the solubility ([2]; aqueous with cosolvent or surfactant or cyclodextrin, Solubilizer concentration: Gastrodin 3 %, Hydroxypropyl-β-cyclodextrin 3 %)?
The solubility was 16.2 mg/mL (≈ 39.9 mM).

And the solubility ([2]; aqueous with cosolvent or surfactant or cyclodextrin, Solubilizer concentration: Gastrodin 5 %, Hydroxypropyl-β-cyclodextrin 3 %)?
Its solubility is 22.6 mg/mL (≈ 55.6 mM).

What about the solubility ([2]; aqueous with cosolvent or surfactant or cyclodextrin, Solubilizer concentration: Gastrodin 8 %, Hydroxypropyl-β-cyclodextrin 3 %) of the same compound?
Its solubility is 30.9 mg/mL (≈ 76.1 mM).

And the solubility ([2]; aqueous with cosolvent or surfactant or cyclodextrin, Solubilizer concentration: Gastrodin 10 %, Hydroxypropyl-β-cyclodextrin 3 %)?
The solubility was 39.8 mg/mL (≈ 98 mM).

And the solubility ([2]; aqueous with cosolvent or surfactant or cyclodextrin, Solubilizer concentration: Gastrodin 15 %, Hydroxypropyl-β-cyclodextrin 3 %)?
Its solubility is 56 mg/mL (≈ 138 mM).

What about the solubility ([2]; aqueous with cosolvent or surfactant or cyclodextrin, Solubilizer concentration: Gastrodin 20 %, Hydroxypropyl-β-cyclodextrin 3 %) of the same compound?
Its solubility is 107 mg/mL (≈ 264 mM).

And the solubility ([2]; aqueous with cosolvent or surfactant or cyclodextrin, Solubilizer concentration: Gastrodin 25 %, Hydroxypropyl-β-cyclodextrin 3 %)?
The solubility was 127 mg/mL (≈ 312 mM).

What about the solubility ([2]; aqueous with cosolvent or surfactant or cyclodextrin, Solubilizer concentration: Gastrodin 30 %, Hydroxypropyl-β-cyclodextrin 3 %) of the same compound?
The solubility was 181 mg/mL (≈ 446 mM).

What about the solubility ([2]; aqueous with cosolvent or surfactant or cyclodextrin, Solubilizer concentration: Gastrodin 35 %, Hydroxypropyl-β-cyclodextrin 3 %) of the same compound?
The solubility was 233 mg/mL (≈ 574 mM).

And the solubility ([2]; aqueous with cosolvent or surfactant or cyclodextrin, Solubilizer concentration: Gastrodin 40 %, Hydroxypropyl-β-cyclodextrin 3 %)?
Its solubility is 197 mg/mL (≈ 485 mM).

And the solubility ([2]; aqueous with cosolvent or surfactant or cyclodextrin, Solubilizer concentration: Gastrodin 45 %, Hydroxypropyl-β-cyclodextrin 3 %)?
Its solubility is 187 mg/mL (≈ 460 mM).

What about the solubility ([2]; aqueous with cosolvent or surfactant or cyclodextrin, Solubilizer concentration: Gastrodin 50 %, Hydroxypropyl-β-cyclodextrin 3 %) of the same compound?
Its solubility is 188 mg/mL (≈ 463 mM).

And the solubility ([2]; water, Gastrodin concentration 0 %)?
The solubility was 1.75 mg/mL (≈ 4.31 mM).

And the solubility ([2]; water, Hydroxypropyl-β-cyclodextrin concentration 0 %)?
Its solubility is 1.75 mg/mL (≈ 4.31 mM).
